≈ marks a conversion by molar mass, not a printed value.
Key:
Assay type in all cases: functional
Escherichia coli [1] = assay: Antimicrobial activity against Escherichia coli TOP10 by Etest
Escherichia coli [2] = assay: Antimicrobial activity against Escherichia coli TOP10 harboring pSmQnr7 carrying Smqnr gene by Etest
Escherichia coli [3] = assay: Antimicrobial activity against Escherichia coli TOP10 harboring pSmQnr1 carrying Smqnr gene by Etest
Escherichia coli [4] = assay: Antimicrobial activity against Escherichia coli TOP10 harboring pSmQnr3 carrying Smqnr gene by Etest
Escherichia coli [5] = assay: Antimicrobial activity against Escherichia coli TOP10 harboring pSmQnr10 carrying Smqnr gene by Etest
Escherichia coli [6] = assay: Antimicrobial activity against Escherichia coli TOP10 harboring pSmQnr6 carrying Smqnr gene by Etest
Escherichia coli [7] = assay: Antimicrobial activity against Escherichia coli TOP10 harboring pSmQnr4 carrying Smqnr gene by Etest
Escherichia coli [8] = assay: Antimicrobial activity against Escherichia coli TOP10 harboring pSmQnr8 carrying Smqnr gene by Etest
Escherichia coli [9] = assay: Antimicrobial activity against Escherichia coli TOP10 harboring pSmQnr11 carrying Smqnr gene by Etest
Escherichia coli [10] = assay: Antimicrobial activity against Escherichia coli TOP10 harboring pSmQnr5 carrying Smqnr gene by Etest
Escherichia coli [11] = assay: Antimicrobial activity against Escherichia coli TOP10 harboring pSmQnr2 carrying Smqnr gene by Etest
Escherichia coli [12] = assay: Antimicrobial activity against Escherichia coli TOP10 harboring pSmQnr9 carrying Smqnr gene by Etest

## C[C@H]1COc2c(N3CCN(C)CC3)c(F)cc3c(=O)c(C(=O)O)cn1c23.C[C@H]1COc2c(N3CCN(C)CC3)c(F)cc3c(=O)c(C(=O)O)cn1c23.O [LEVOFLOXACIN]
Escherichia coli [1]
  MIC: 0.004 µg/mL
Escherichia coli [2]
  MIC: 0.023 µg/mL
Escherichia coli [3]
  MIC: 0.023 µg/mL
Escherichia coli [4]
  MIC: 0.006 µg/mL
Escherichia coli [5]
  MIC: 0.023 µg/mL
Escherichia coli [6]
  MIC: 0.023 µg/mL
Escherichia coli [7]
  MIC: 0.006 µg/mL

## COc1c(N2C[C@@H]3CCCN[C@@H]3C2)c(F)cc2c(=O)c(C(=O)O)cn(C3CC3)c12 [MOXIFLOXACIN]
Escherichia coli [1]
  MIC: < 0.002 µg/mL
Escherichia coli [2]
  MIC: 0.008 µg/mL (≈ 0.0199 µM)
Escherichia coli [3]
  MIC: 0.012 µg/mL (≈ 0.0299 µM)
Escherichia coli [4]
  MIC: 0.002 µg/mL (≈ 0.00498 µM)
Escherichia coli [5]
  MIC: 0.004 µg/mL (≈ 0.00996 µM)
Escherichia coli [6]
  MIC: 0.047 µg/mL (≈ 0.117 µM)
Escherichia coli [8]
  MIC: 0.002 µg/mL (≈ 0.00498 µM)
Escherichia coli [9]
  MIC: 0.002 µg/mL (≈ 0.00498 µM)
Escherichia coli [10]
  MIC: 0.003 µg/mL (≈ 0.00747 µM)
Escherichia coli [7]
  MIC: 0.002 µg/mL (≈ 0.00498 µM)

## CCn1cc(C(=O)O)c(=O)c2cc(F)c(N3CCNCC3)cc21 [NORFLOXACIN]
Escherichia coli [1]
  MIC: 0.032 µg/mL (≈ 0.1 µM)
Escherichia coli [2]
  MIC: 0.047 µg/mL (≈ 0.147 µM)
Escherichia coli [3]
  MIC: 0.064 µg/mL (≈ 0.2 µM)
Escherichia coli [4]
  MIC: 0.032 µg/mL (≈ 0.1 µM)
Escherichia coli [5]
  MIC: 0.032 µg/mL (≈ 0.1 µM)
Escherichia coli [11]
  MIC: 0.047 µg/mL (≈ 0.147 µM)
Escherichia coli [12]
  MIC: 0.032 µg/mL (≈ 0.1 µM)
Escherichia coli [6]
  MIC: 0.064 µg/mL (≈ 0.2 µM)
Escherichia coli [8]
  MIC: 0.047 µg/mL (≈ 0.147 µM)
Escherichia coli [9]
  MIC: 0.032 µg/mL (≈ 0.1 µM)
Escherichia coli [10]
  MIC: 0.032 µg/mL (≈ 0.1 µM)
Escherichia coli [7]
  MIC: 0.032 µg/mL (≈ 0.1 µM)

## COc1c(N2CCNC(C)C2)c(F)cc2c(=O)c(C(=O)O)cn(C3CC3)c12 (stereo unspecified) [GATIFLOXACIN]
Escherichia coli [1]
  MIC: < 0.002 µg/mL
Escherichia coli [2]
  MIC: 0.023 µg/mL (≈ 0.0613 µM)
Escherichia coli [3]
  MIC: 0.008 µg/mL (≈ 0.0213 µM)
Escherichia coli [4]
  MIC: 0.003 µg/mL (≈ 0.00799 µM)
Escherichia coli [5]
  MIC: 0.003 µg/mL (≈ 0.00799 µM)
Escherichia coli [12]
  MIC: 0.002 µg/mL (≈ 0.00533 µM)
Escherichia coli [6]
  MIC: 0.064 µg/mL (≈ 0.17 µM)
Escherichia coli [8]
  MIC: 0.002 µg/mL (≈ 0.00533 µM)
Escherichia coli [9]
  MIC: 0.003 µg/mL (≈ 0.00799 µM)
Escherichia coli [7]
  MIC: 0.002 µg/mL (≈ 0.00533 µM)

## CCn1cc(C(=O)O)c(=O)c2ccc(C)nc21 [NALIDIXIC ACID]
Escherichia coli [1]
  MIC: 1.5 µg/mL (≈ 6.46 µM)
Escherichia coli [2]
  MIC: 2 µg/mL (≈ 8.61 µM)
Escherichia coli [3]
  MIC: 3 µg/mL (≈ 12.9 µM)
Escherichia coli [4]
  MIC: 1.5 µg/mL (≈ 6.46 µM)
Escherichia coli [5]
  MIC: 2 µg/mL (≈ 8.61 µM)
Escherichia coli [11]
  MIC: 2 µg/mL (≈ 8.61 µM)
Escherichia coli [12]
  MIC: 1.5 µg/mL (≈ 6.46 µM)
Escherichia coli [6]
  MIC: 2 µg/mL (≈ 8.61 µM)
Escherichia coli [8]
  MIC: 2 µg/mL (≈ 8.61 µM)
Escherichia coli [9]
  MIC: 2 µg/mL (≈ 8.61 µM)
Escherichia coli [10]
  MIC: 2 µg/mL (≈ 8.61 µM)
Escherichia coli [7]
  MIC: 1.5 µg/mL (≈ 6.46 µM)

## C[C@@H]1CN(c2c(F)c(N)c3c(=O)c(C(=O)O)cn(C4CC4)c3c2F)C[C@H](C)N1 [SPARFLOXACIN]
Escherichia coli [1]
  MIC: < 0.002 µg/mL
Escherichia coli [2]
  MIC: 0.008 µg/mL (≈ 0.0204 µM)
Escherichia coli [3]
  MIC: 0.004 µg/mL (≈ 0.0102 µM)
Escherichia coli [5]
  MIC: 0.002 µg/mL (≈ 0.0051 µM)
Escherichia coli [6]
  MIC: 0.125 µg/mL (≈ 0.319 µM)
